According to US20130210846A1, “USE OF NOVEL PAN-CDK INHIBITORS FOR TREATING TUMORS” (BAYER INTELLECTUAL PROPERTY GMBH, priority 2010, published 2013):

Experiments:
Format in all cases: in vivo, female NMRI nude mice
[1] = system: HeLa-MaTu human cervix carcinoma cells; test: HeLa-MaTu human cervix carcinoma xenograft model
Excerpt: (§1) Tumor cells grown in cell culture were implanted subcutaneously in the flank of female or male NMRI nude mice. The treatment was started as soon as the tumors had grown to a size of approx. 20 mm^2 The study was ended as soon as the tumors in one of the groups reached a size of approx. 150 mm^2.
(§2) Vehicle group: treatment with solubilizer (40% PEG400/60% water)
(§3) The studies were designed for determining the initial response of the human tumor model to the treatment with the Exemplary compound 2-SI-2. Tumor growth inhibition in percent (TGI) was either calculated at the end of the studies from the tumor weights (TGITW) using the formula 100×[1−(tumor weight of the treatment group/tumor weight of the vehicle group)], or on the day the vehicle group had to be ended from the tumor areas (TGITA) using the formula 100×[1−(tumor area of the treatment group on the day of the measurement−tumor area of the treatment group prior to treatment)/(tumor area of the vehicle group on the day of the measurement−tumor area of the vehicle group prior to treatment)]. In the case of a tumor growth inhibition of more than 50%, the treatment was considered to have been effective.
Efficacy in the HeLa-MaTu human cervix carcinoma xenograft model
HeLa-MaTu human cervix carcinoma cells implanted into female NMRI nude mice
• a) 0.05 mg/ml, 0.10 mg/ml, 0.15 mg/ml, 0.2 mg/ml of Example 2-SI-2 in 40% (v/v) PEG 400 in water • b) 0.15 mg/ml, 0.2 mg/ml, 0.25 mg/ml of Example 2-SI-2 in 40% (v/v) PEG 400 in water
• a) 0.5 to 2.0 mg/kg (1.5 to 6.0 mg/m^2) 1× per day b) 1.5 to 2.5 mg/kg (4.5 to 7.5 mg/m^2) 2× per day on 2 successive days, followed by 5 treatment-free days

[2] = system: HCT116 human colorectal tumor cells; test: HCT116 human colorectal xenograft model
Excerpt: as §1, §2, §3
Efficacy in the HCT116 human colorectal xenograft model.
HCT116 human colorectal tumor cells implanted into female NMRI nude mice.
• a) 0.15 mg/ml, 0.20 mg/ml of Example 2-SI-2 in 40% (v/v) PEG 400 in water • b) 0.20 mg/ml, 0.25 mg/ml of Example 2-SI-2 in 40% (v/v) PEG 400 in water • c) 0.40 mg/ml, 0.50 mg/ml, 0.60 mg/ml of Example 2-SI-2 in 40% (v/v) PEG 400 in water
• a) 1.5 and 2.0 mg/kg (4.5 and 6.0 mg/m^2), 1× per day. • b) 2.0 and 2.5 mg/kg (6.0 and 7.5 mg/m^2), 2× per day on 2 successive days, followed by 5 treatment-free days. • c) 4.0 to 6.0 mg/kg (12 to 18 mg/m^2), 1× per day on 2 successive days, followed by 5 treatment-free days.

[3] = system: MDA-MB231 human breast tumor cells; test: MDA-MB231 human breast tumor model
Excerpt: as §1, §2, §3
Efficacy in the MDA-MB231 human breast tumor model MDA-MB231.
MDA-MB231 human breast tumor cells implanted into female NMRI nude mice.
• a) 0.20 mg/ml of Example 2-SI-2 in 40% (v/v) PEG 400 in water • b) 0.25 mg/ml of Example 2-SI-2 in 40% (v/v) PEG 400 in water • c) 0.15 mg/ml of Example 2-SI-2 in 40% (v/v) PEG 400 in water • d) 0.17 mg/ml of Example 2-SI-2 in 40% (v/v) PEG 400 in water
• a) 2.0 mg/kg (6.0 mg/m^2), 1× per day. • b) 2.5 mg/kg (7.5 mg/m^2), 2× per day on 2 successive days, followed by 5 treatment-free days. • c) 1.5 mg/kg (4.5 mg/m^2), 2× per day on 3 successive days, followed by 4 treatment-free days. • d) 1.7 mg/kg (5.1 mg/m^2), 2× per day on 3 successive days, followed by 4 treatment-free days.

[4] = system: HeLa-MaTu-ADR multidrug-resistant human cervix carcinoma cells; test: HeLa-MaTu-ADR Res. xenograft model
Excerpt: as §1, §2, §3
Efficacy in the HeLa-MaTu-ADR Res. xenograft model
HeLa-MaTu-ADR multidrug-resistant human cervix carcinoma cells implanted into female NMRI nude mice.
Formulation • a) 0.15 mg/ml, 0.20 mg/ml of Example 2-SI-2 in 40% (v/v) PEG 400 in water • b) 0.20 mg/ml, 0.25 mg/ml of Example 2-SI-2 in 40% (v/v) PEG 400 in water
• a) 1.5 and 2.0 mg/kg (4.5 and 6.0 mg/m^2), 1× per day • b) 2.0 and 2.5 mg/kg (6.0 and 7.5 mg/m^2), 2× per day on 2 successive days, followed by 5 treatment-free days

[5] = HeLa-MaTu; b) 2.5 mg/kg oral 2× per day on 2 successive days, followed by 5 treatment-free days
[6] = HCT116; b) 2.5 mg/kg oral 2× per day on 2 successive days, followed by 5 treatment-free days
[7] = HeLa-MaTu-ADR; b) 2.5 mg/kg oral 2× per day on 2 successive days, followed by 5 treatment-free days

Question: `C[C@@H](O)[C@@H](C)Oc1nc(Nc2ccc(S(C)(=N)=O)cc2)ncc1C(F)(F)F` (mixture of isomers) [Example 2-SI-2, (RS)—S-(4-{[4-{[(1R,2R)-2-Hydroxy-1-methylpropyl]oxy}-5-(trifluoromethyl)pyrimidin-2-yl]-amino}phenyl)-S-methylsulfoximide] was tested. Which “TGITW (tumor growth inhibition from tumor weights)” value ([1]; HeLa-MaTu; a) 2.0 mg/kg oral 1× per day) did it give?
Answer: 97%

Question: And the “TGITW (tumor growth inhibition from tumor weights)” value [1, 5]?
Answer: 98%

Question: What about the tumor regression observation [1, 5] of the same compound?
Answer: signs of tumor regression

Question: And the “TGITW (tumor growth inhibition from tumor weights)” value ([2]; HCT116; a) 2.0 mg/kg oral 1× per day)?
Answer: 67%

Question: And the “TGITW (tumor growth inhibition from tumor weights)” value [2, 6]?
Answer: 57%

Question: What about the tumor regression observation [2, 6] of the same compound?
Answer: signs of tumor regression

Question: And the “TGITW (tumor growth inhibition from tumor weights)” value ([2]; HCT116; c) 5.0 mg/kg oral 1× per day on 2 successive days, followed by 5 treatment-free days)?
Answer: 83%

Question: And the “TGITA (tumor growth inhibition from tumor areas, measured on the day the vehicle group was ended)” value ([3]; MDA-MB231; a) 2.0 mg/kg oral 1× per day)?
Answer: 92%

Question: What about the “TGITA (tumor growth inhibition from tumor areas)” value ([3]; MDA-MB231; b) 2.5 mg/kg oral 2× per day on 2 successive days, followed by 5 treatment-free days) of the same compound?
Answer: 76%

Question: And the “TGITA (tumor growth inhibition from tumor areas)” value ([3]; MDA-MB231; c) 1.5 mg/kg oral 2× per day on 3 successive days, followed by 4 treatment-free days)?
Answer: 70%

Question: What about the “TGITA (tumor growth inhibition from tumor areas)” value ([3]; MDA-MB231; d) 1.7 mg/kg oral 2× per day on 3 successive days, followed by 4 treatment-free days) of the same compound?
Answer: 70%

Question: What about the “TGITW (tumor growth inhibition from tumor weights)” value ([4]; HeLa-MaTu-ADR; a) 2.0 mg/kg oral 1× per day) of the same compound?
Answer: 97%

Question: And the “TGITW (tumor growth inhibition from tumor weights)” value [4, 7]?
Answer: 90%

Question: And the tumor regression observation [4, 7]?
Answer: signs of tumor regression
